Measurements taken from patent publication US9499511B2, “N-substituted hydroxylamine derivatives with carbon-based leaving groups” (The Johns Hopkins University, priority 2011, dated 2016).
Like-named read-outs stand apart in the source and are kept apart here. Each block holds one compound with its values, some of them ahead of it.

Tests used:
[1] = pKa of carbanion byproduct (concentration of b / b-H+ as a function of pH, UV-Vis); assay type: physicochemical
Source text: FIG. 2A and FIG. 2B show a graph plotting the concentration of 4b, 4b-H^+ (FIG. 2A) and 6b, 6b-H^+ (FIG. 2B) as a function of pH. In FIG. 2A, the squares represent 4b-H^+ (λmax=298 nm), and the circles represent carbanion 4b (λmax=261 nm). In FIG. 2B, the squares represent 6b-H^+ (λmax=270 nm), where the last three data points were omitted due to spectral overlap, and the circles represent carbanion 6b (λmax=253 nm).
NMR spectra were obtained on a Bruker Avance 400 MHz FT-NMR spectrometer. All chemical shifts are reported in parts per million (ppm) relative to residual CHCl3 (7.26 ppm for ^1H, 77.23 ppm for ^13C), residual DMSO (2.50 ppm for ^1H, 39.52 for ^13C), or residual H2O (4.8 ppm for ^1H). High-resolution mass spectra were obtained on a VG Analytical VG70SE magnetic sector mass spectrometer operating in fast atom bombardment (FAB) mode. Ultraviolet-Visible (UV-Vis) absorption spectra were obtained using a Hewlett Packard 8453 diode array spectrometer. Phosphate-buffered saline (PBS) solutions (0.1 M) were prepared with 140 mM NaCl and 3 mM KCl, with 100 μM diethylenetriaminepentaacetic acid (DTPA), adjusted to pH 7.4. Buffered solutions (0.1 M) for UV-Vis experiments were prepared from HCl/NaCl (pH 1.7), AcOH/AcONa (pH 3.0, 3.5, 4.0, 4.5, 5.0, 5.5), or NaPO3H2/Na2PO3H (pH 6.0, 6.5, 7.0, 8.0, 9.0, 9.5, 9.8, 10.0, 10.5, 10.6).

[2] = test system: Sprague-Dawley rats; test: Acute cardiovascular effects, pressure-volume (PV) loop analysis in anesthetized rats; assay type: in vivo, rat; details: IV infusion 100 μg/kg/min, 5 rats
Protocol: The acute cardiovascular effects of compounds 4a and 6a, when administered intravenously to Sprague-Dawley rats at an infusion rate of 100 μg/kg/min, were examined by means of pressure-volume (PV) curve (loops) analysis. PV families/relationships were generated via pre-load variation and hemodynamic indices were compared to baseline values. Each test article was administered to 5 rats.
Rats were intraperitoneally (IP) anesthetized to effect with pentobarbital (˜50 mg/kg), shaved and positioned in dorsal recumbence, endotracheally intubated and ventilated […], ˜2.5 mL tidal volume with 95% O2/5% CO2) with an adjustable small animal ventilator (Harvard Apparatus). Anesthesia was maintained with a continuous pentobarbital infusion (to effect, ˜3 to 5 mg/kg/h, IV) until completion of the experiment via an indwelling catheter placed in a femoral vein. Subsequently, transthoracic needle electrodes forming a single-lead ECG were placed. For LV mechano-energetic evaluation, the right carotid artery was isolated, dissected free from the surrounding tissue, and cannulated with a 2F high-fidelity conductance/micromanometer catheter (Millar Instruments). This catheter was advanced retrograde across the aortic valve and into the LV chamber in order to simultaneously determine left-ventricular pressure and volume (via conductivity). […] Meanwhile, in order to record arterial pressures, a 2F high-fidelity micromanometer catheter (Millar Instruments) was inserted into a femoral artery and advanced towards the abdominal aorta. Finally, an in-dwelling catheter was placed into the jugular vein for administration of test article.
Following collection of baseline hemodynamic data, infusion of test article was initiated at an infusion rate of 100 μg/kg/min; at 10 μL/min. Pressure-volume analyses were performed again approximately 30 min and 45 min after the initiation of the dose.
The resulting left-ventricular pressure and volume data was analyzed offline (IOX/ECG Auto; EMKA Technologies) in order to generate relationships representing the contractile and energetic state of the myocardium. Systolic (SAP), diastolic (DAP), and mean (MAP) arterial pressures were collected. Left-ventricular mechanical and/or geometrical indices were obtained from the pressure (ESP, EDP, dP/dt max/min, time-constant of relaxation—tau [based on mono-exponential decay with non-zero asymptote]) and volume (ESV, EDV, SV) signal. In addition, the following measurements were derived from left-ventricular pressure-volume data (PV loops) generated during brief periods of preload reduction: • Pressure volume area (PVA) and stroke work (SW). • End-systolic (ESPVR) and end-diastolic (EDPVR) pressure volume relationships. • End systolic pressure and stroke volume relationship (Arterial Elastance, Ea).
Data are presented as means with standard errors (mean±SEM) in Table 6.

[3] = N2O headspace analysis (GC) of HNO production, relative to Angeli's salt; assay type: physicochemical
Protocol: Nitrous oxide is produced via the dimerization and dehydration of HNO, and is the most common marker for HNO production (Fukuto, J. M. et al., Chem. Res. Toxicol. 2005, 18, 790-801).
Gas chromatography was performed on a Varian CP-3800 instrument equipped with a 1041 manual injector, electron capture detector, and a 25 m 5 Å molecular sieve capillary column. Grade 5.0 nitrogen was used as both the carrier (8 mL/min) and the make-up (22 mL/min) gas. The injector oven and the detector oven were kept at 200° C. and 300° C., respectively. All nitrous oxide analyses were performed with the column oven held constant at 150° C. All gas injections were made using a 100 μL gastight syringe with a sample-lock. Samples were prepared in 15 mL amber headspace vials with volumes pre-measured for sample uniformity (actual vial volume ranges from 15.19-15.20 mL). Vials were charged with 5 mL of PBS buffer containing DTPA, purged with argon, and sealed with a rubber septum. The vials were equilibrated for at least 10 minutes at 37° C. in a dry block heater. A 10 mM stock solution of Angeli's salt (AS) was prepared in 10 mM sodium hydroxide, and HNO donors 1a-4a, 6a (10 mM) were prepared in acetonitrile or methanol and used immediately after preparation. From these stock solutions, 50 μL was introduced into individual thermally-equilibrated headspace vials using a gastight syringe, yielding final substrate concentrations of 0.1 mM. Substrates were then incubated long enough to ensure complete decomposition and equilibration of N2O with the headspace. The headspace (60 μL) was then sampled and injected five successive times using a gastight syringe with a sample lock. This was repeated for n≧3 vials per donor. The nitrous oxide yield was averaged and reported relative to the standard, Angeli's salt. For chemical trapping of HNO, glutathione (100 μL of 10 mM in PBS) was added prior to HNO donor addition to give a final glutathione concentration of 0.2 mM, and headspace sampling for N2O was analogously performed as stated above.

[4] = Decomposition kinetics monitored by UV-Vis spectroscopy; assay type: physicochemical; details: PBS, pH 7.4, Condition A: pH 7.4, 37° C., 0.1M PBS, 100 μL DTPA, air (UV/Vis)
[5] = as above; assay type: physicochemical
Protocol: NMR spectra were obtained on a Bruker Avance 400 MHz FT-NMR spectrometer. […] High-resolution mass spectra were obtained on a VG Analytical VG70SE magnetic sector mass spectrometer operating in fast atom bombardment (FAB) mode. […] Phosphate-buffered saline (PBS) solutions (0.1 M) were prepared with 140 mM NaCl and 3 mM KCl, with 100 μM diethylenetriaminepentaacetic acid (DTPA), adjusted to pH 7.4.

- pKa of byproduct [1]: ca. 4.2
Compound: 5-(acetyl-O-methoxyoxime)-N,N-dimethylbarbituric acid [Compound 4b]

- half-life [4]: 9.5 min
- half-life ([5]; AcOH/AcONa buffer, pH 4, pH 4.0, room temperature, read-out: half-life (converted)): ~1500 min
- half-life ([5]; PBS, pH 7.4, footnote c not given, pH 7.4, 37° C., read-out: t1/2): 9.5 min
- half-life ([5]; PBS, pH 7.4, pH 7.4 and 37° C., read-out: half-life (converted)): ~10 min
- pH near which the decomposition rate sharply increases ([5]; decomposition rate as a function of pH at 25° C., UV-Vis): ~10
Compound: CO/N=C(\C)C1(NO)C(=O)N(c2ccccc2)N=C1C (stereo not shown) [Compound 6a, 4-(N-hydroxylamine)-4-(acetyl-O-methoxyoxime)-N-phenyl-5-methyl-pyrazolone]
- Mean Blood Pressure ([2]; baseline 124 (4a) / 138 (6a)): 111 mmHg
- Stroke Volume ([2]; mean, baseline 1 (4a) / 2.2 (6a)): 2.4 relative volume units
- End Diastolic Pressure Volume Relationship ([2]; mean, baseline 1.7 (4a) / 1.8 (6a)): 1.5
- End Diastolic Pressure ([2]; mean, baseline 4.7 (4a) / 4.4 (6a)): 3.6 mmHg
- Tau ([2]; mean, baseline 8.5 (4a) / 8.7 (6a)): 8.6 ms
- Arterial Elastance ([2]; mean, baseline 9.2 (4a) / 7.4 (6a)): 5.7
- End Diastolic Volume ([2]; mean, baseline 14.6 (4a) / 19.2 (6a)): 20 relative volume units
- End Systolic Pressure Volume Relationship ([2]; mean, baseline 28.1 (4a) / 23.7 (6a)): 31
- Pre-Load Recruitable Stroke Work ([2]; mean, baseline 37.6 (4a) / 42.8 (6a)): 58.2
- Diastolic Blood Pressure ([2]; mean, baseline 109 (4a) / 121 (6a)): 97 mmHg
- Stroke Work ([2]; mean, baseline 112 (4a) / 227 (6a)): 185 relative volume units × mmHg
- End Systolic Pressure ([2]; mean, baseline 134 (4a) / 141 (6a)): 113 mmHg
- Systolic Blood Pressure ([2]; mean, baseline 147 (4a) / 160 (6a)): 130 mmHg
- Pressure Volume Area ([2]; mean, baseline 343 (4a) / 590 (6a)): 318
- Heart Rate ([2]; mean, baseline 365 (4a) / 340 (6a)): 332 bp, m
- Left Ventricular +dP/dt ([2]; mean, baseline 6392 (4a) / 7689 (6a)): 6044 mmHg/s
- Left Ventricular −dP/dt ([2]; mean, baseline −7585 (4a) / −8257 (6a)): −6549 mmHg/s
- HNO / N2O production (in words) ([3]; decomposition at pH 7.4): efficiently produces HNO
- % HNO ([3]; donor 0.1 mM, 37° C., PBS pH 7.4, yield relative to Angeli's salt by N2O headspace analysis, SEM ±5%, n = 3): 110%
